Target: T1, WNK2 (Homo sapiens, UniProt Q9Y3S1)
T1 construct: purchased Thermo Fisher Scientific (Life Technologies) SelectScreen
Experiment: SelectScreen LanthaScreen
Type: binding
Settings: read-out: % displacement
How it was run: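 NU5455 was profiled across the SelectScreen Broad panel of kinase activity and binding assays. Z'LYTE reactions such as CSF1R ran at apparent Km ATP, while the Adapta CAMK1 assay used ATP listed as 10. Values are given as percent.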

T1 sequence (Q9Y3S1 whole entry): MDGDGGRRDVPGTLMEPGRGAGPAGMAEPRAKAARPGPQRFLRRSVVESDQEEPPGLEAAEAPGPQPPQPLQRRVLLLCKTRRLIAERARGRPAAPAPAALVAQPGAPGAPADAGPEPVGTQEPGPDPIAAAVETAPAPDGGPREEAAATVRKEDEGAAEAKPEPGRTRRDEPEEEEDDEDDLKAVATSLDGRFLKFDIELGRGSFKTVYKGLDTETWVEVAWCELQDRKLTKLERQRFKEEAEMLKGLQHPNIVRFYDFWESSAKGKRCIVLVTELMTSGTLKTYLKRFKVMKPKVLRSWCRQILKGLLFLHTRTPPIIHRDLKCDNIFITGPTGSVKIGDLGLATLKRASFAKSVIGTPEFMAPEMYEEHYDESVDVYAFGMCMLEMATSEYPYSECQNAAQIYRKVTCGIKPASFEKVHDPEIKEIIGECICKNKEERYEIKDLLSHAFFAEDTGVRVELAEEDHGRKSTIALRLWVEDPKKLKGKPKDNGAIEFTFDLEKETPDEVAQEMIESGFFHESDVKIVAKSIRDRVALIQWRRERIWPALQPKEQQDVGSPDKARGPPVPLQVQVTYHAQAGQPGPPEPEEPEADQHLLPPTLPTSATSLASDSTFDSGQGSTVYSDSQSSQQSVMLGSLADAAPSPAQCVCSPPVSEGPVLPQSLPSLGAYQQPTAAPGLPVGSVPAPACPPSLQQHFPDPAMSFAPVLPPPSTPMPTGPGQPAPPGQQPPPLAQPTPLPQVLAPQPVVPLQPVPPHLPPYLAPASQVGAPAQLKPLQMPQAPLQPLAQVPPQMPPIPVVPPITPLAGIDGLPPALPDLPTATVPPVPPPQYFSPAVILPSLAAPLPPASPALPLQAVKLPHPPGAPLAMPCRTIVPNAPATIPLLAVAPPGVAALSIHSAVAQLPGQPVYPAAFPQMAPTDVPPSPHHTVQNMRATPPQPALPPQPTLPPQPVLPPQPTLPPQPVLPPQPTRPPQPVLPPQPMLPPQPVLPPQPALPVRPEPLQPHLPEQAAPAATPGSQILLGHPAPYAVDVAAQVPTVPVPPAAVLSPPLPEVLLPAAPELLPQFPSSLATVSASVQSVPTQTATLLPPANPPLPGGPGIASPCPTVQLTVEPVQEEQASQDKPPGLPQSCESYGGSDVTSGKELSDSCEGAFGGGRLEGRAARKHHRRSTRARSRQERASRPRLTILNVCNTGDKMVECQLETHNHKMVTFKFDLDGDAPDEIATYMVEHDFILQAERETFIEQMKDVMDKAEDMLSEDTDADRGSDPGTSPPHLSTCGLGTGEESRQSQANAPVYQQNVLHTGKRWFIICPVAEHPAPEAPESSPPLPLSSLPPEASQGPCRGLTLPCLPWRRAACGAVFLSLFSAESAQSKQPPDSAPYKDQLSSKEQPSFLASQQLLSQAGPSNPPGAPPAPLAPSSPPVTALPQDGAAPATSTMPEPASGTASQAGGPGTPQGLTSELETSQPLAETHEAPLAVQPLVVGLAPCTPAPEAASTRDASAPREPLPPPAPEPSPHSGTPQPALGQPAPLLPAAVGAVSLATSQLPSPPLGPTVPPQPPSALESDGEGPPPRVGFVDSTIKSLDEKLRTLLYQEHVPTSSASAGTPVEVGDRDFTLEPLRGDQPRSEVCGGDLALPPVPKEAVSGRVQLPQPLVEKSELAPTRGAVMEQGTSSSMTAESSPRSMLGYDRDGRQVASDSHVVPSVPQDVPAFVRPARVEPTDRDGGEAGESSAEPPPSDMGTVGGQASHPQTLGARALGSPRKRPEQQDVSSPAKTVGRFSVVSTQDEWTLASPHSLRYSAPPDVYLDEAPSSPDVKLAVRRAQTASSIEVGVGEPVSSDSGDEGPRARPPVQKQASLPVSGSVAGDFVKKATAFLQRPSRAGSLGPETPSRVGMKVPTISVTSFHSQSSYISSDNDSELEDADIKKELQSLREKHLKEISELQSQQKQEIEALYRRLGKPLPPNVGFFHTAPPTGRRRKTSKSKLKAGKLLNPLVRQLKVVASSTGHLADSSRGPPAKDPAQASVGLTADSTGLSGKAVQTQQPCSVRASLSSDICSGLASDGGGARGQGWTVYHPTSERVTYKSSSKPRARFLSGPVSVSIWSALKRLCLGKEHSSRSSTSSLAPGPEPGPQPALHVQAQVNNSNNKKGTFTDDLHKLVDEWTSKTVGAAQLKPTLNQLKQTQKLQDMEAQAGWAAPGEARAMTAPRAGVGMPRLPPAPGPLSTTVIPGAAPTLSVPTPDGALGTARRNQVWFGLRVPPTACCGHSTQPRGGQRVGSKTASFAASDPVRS

Q: For `CN(C(=O)CN1CCOCC1)c1ccc2sc3c(-c4cccc5c(=O)cc(N6CC7CCC(C6)O7)oc45)cccc3c2c1` [NU5455], which inhibition at 1 µM is on record?
A: Its inhibition at 1 µM is -2.5%.

From paper PMC6934184, “Selective DNA-PKcs inhibition extends the therapeutic index of localized radiotherapy and chemotherapy” (The Journal of Clinical Investigation, 2019)
